In patent US20150259300A1, “4-(ORTHO)-FLUOROPHENYL-5-FLUOROPYRIMIDIN-2-YL AMINES CONTAINING A SULFONE GROUP” (BAYER PHARMA AKTIENGESELLSCHAFT, priority 2012, published 2015):

Assays:
CDK9/CycT1 = biological target: T1, CDK9/CycT1 (Homo sapiens, UniProt P50750); test: CDK9/CycT1 kinase assay (TR-FRET, Method 1a); format: biochemical; conditions: for IC50: Method 1a, 10 μM ATP; for Selectivity CDK9/CDK2: derived from Methods 1a. and 2.
T1 construct: Recombinant full-length His-tagged human CDK9 and CycT1; His; purchased Invitrogen PV4131; host or cells: insect cells
T1 sequence (P50750 whole entry): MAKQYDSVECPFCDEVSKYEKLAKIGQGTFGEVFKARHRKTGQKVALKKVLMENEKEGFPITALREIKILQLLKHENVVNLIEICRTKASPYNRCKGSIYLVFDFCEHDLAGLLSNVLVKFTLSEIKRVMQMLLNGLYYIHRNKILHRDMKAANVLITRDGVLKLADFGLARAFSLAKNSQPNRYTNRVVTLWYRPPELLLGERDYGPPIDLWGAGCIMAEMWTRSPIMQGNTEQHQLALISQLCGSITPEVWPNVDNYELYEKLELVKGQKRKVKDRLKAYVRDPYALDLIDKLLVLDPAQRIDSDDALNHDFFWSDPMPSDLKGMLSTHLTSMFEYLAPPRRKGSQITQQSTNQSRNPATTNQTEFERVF
T1 sequence (O60563 whole entry partner): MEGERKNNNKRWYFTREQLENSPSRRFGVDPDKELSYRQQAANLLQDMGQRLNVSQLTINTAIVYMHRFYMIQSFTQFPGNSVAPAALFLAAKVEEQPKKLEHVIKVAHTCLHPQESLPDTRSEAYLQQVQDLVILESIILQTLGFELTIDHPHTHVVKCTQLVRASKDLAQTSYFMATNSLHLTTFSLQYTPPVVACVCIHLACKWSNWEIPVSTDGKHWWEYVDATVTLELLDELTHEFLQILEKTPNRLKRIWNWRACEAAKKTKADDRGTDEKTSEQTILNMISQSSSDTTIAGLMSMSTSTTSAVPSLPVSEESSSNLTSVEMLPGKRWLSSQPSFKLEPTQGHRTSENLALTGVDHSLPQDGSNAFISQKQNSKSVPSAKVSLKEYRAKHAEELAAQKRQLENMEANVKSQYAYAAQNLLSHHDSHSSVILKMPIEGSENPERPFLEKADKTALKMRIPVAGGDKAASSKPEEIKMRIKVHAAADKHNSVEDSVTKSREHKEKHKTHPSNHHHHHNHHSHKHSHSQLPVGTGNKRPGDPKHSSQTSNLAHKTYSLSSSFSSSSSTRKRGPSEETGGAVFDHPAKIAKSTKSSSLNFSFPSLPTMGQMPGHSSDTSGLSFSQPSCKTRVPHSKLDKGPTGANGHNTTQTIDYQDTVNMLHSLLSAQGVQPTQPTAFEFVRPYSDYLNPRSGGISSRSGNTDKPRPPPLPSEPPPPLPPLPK
From the text: 1a. CDK9/CyeT1 Kinase Assay:
CDK9/CycT1-inhibitory activity of compounds of the present invention was quantified employing the CDK9/CycT1 TR-FRET assay as described in the following paragraphs:
Recombinant full-length His-tagged human CDK9 and CycT1, expressed in insect cells and purified by Ni-NTA affinity chromatography, were purchased from Invitrogen (Cat. No PV4131). As substrate for the kinase reaction biotinylated peptide biotin-Ttds-YISPLKSPYKISEG (C-terminus in amid form) was used which can be purchased e.g. form the company JERINI Peptide Technologies (Berlin, Germany). For the assay 50 nl of a 100 fold concentrated solution of the test compound in DMSO was pipetted into a black low volume 384 well microtiter plate (Greiner Bio-One, Frickenhausen, Germany), 2 μl of a solution of CDK9/CycT1 in aqueous assay buffer [50 mM Tris/HCl pH 8.0, 10 mM MgCl2, 1.0 mM dithiothreitol, 0.1 mM sodium ortho-vanadate, 0.01% (v/v) Nonidet-P40 (Sigma)] were added and the mixture was incubated for 15 min at 22° C. to allow pre-binding of the test compounds to the enzyme before the start of the kinase reaction. Then the kinase reaction was started by the addition of 3 μl of a solution of adenosine-tri-phosphate (ATP, 16.7 μM=>final conc. in the 5 μl assay volume is 10 μM) and substrate (1.67 μM=>final conc. in the 5 μl assay volume is 1 μM) in assay buffer and the resulting mixture was incubated for a reaction time of 25 min at 22° C. The concentration of CDK9/CycT1 was adjusted depending of the activity of the enzyme lot and was chosen appropriate to have the assay in the linear range, typical concentrations were in the range of 1 μg/ml. The reaction was stopped by the addition of 5 μl of a solution of TR-FRET detection reagents (0.2 μM streptavidine-XL665 [Cisbio Bioassays, Codolet, France] and 1 nM anti-RB(pSer807/pSer811)-antibody from BD Pharmingen [#558389] and 1.2 nM LANCE EU-W1024 labeled anti-mouse IgG antibody [Perkin-Elmer, product no. AD0077]) in an aqueous EDTA-solution (100 mM EDTA, 0.2% (w/v) bovine serum albumin in 100 mM HEPES/NaOH pH 7.0).
(§1) The resulting mixture was incubated 1 h at 22° C. to allow the formation of complex between the phosphorylated biotinylated peptide and the detection reagents. Subsequently the amount of phosphorylated substrate was evaluated by measurement of the resonance energy transfer from the Eu-chelate to the streptavidine-XL. Therefore, the fluorescence emissions at 620 nm and 665 nm after excitation at 350 nm was measured in a HTRF reader, e.g. a Rubystar (BMG Labtechnologies, Offenburg, Germany) or a Viewlux (Perkin-Elmer). The ratio of the emissions at 665 nm and at […] was taken as the measure for the amount of phosphorylated substrate. The data were normalised (enzyme reaction without inhibitor=0% inhibition, all other assay components but no enzyme=100% inhibition).

CDK2/CycE = biological target: T2, CDK2/CycE (Homo sapiens, UniProt P24941); test: CDK2/CycE kinase assay (TR-FRET, Method 2); format: biochemical; conditions: Method 2, 10 μM ATP
T2 construct: GST; purchased ProQinase GmbH (Freiburg, Germany); host or cells: insect cells (Sf9)
From the text: 2. CDK2/CycE Kinase Assay:
CDK2/CycE -inhibitory activity of compounds of the present invention was quantified employing the CDK2/CycE TR-FRET assay as described in the following paragraphs:
Recombinant fusion proteins of GST and human CDK2 and of GST and human CycE, expressed in insect cells (Sf9) and purified by Glutathion-Sepharose affinity chromatography, were purchased from ProQinase GmbH (Freiburg, Germany). As substrate for the kinase reaction biotinylated peptide biotin-Ttds-YISPLKSPYKISEG (C-terminus in amid form) was used which can be purchased e.g. form the company JERINI Peptide Technologies (Berlin, Germany).
For the assay 50 nl of a 100 fold concentrated solution of the test compound in DMSO was pipetted into a black low volume 384 well microtiter plate (Greiner Bio-One, Frickenhausen, Germany), 2 μl of a solution of CDK2/CycE in aqueous assay buffer [50 mM Tris/HCl pH 8.0, 10 mM MgCl2, 1.0 mM dithiothreitol, 0.1 mM sodium ortho-vanadate, 0.01% (v/v) Nonidet-P40 (Sigma)] were added and the mixture was incubated for […] at 22° C. to allow pre-binding of the test compounds to the enzyme before the start of the kinase reaction. Then the kinase reaction was started by the addition of 3 μl of a solution of adenosine-tri-phosphate (ATP, 16.7 μM=>final conc. in the 5 μl assay volume is 10 μM) and substrate (1.25 μM=>final conc. in the 5 μl assay volume is 0.75 μM) in assay buffer and the resulting mixture was incubated for a reaction time of […] at 22° C. The concentration of CDK2/CycE was adjusted depending of the activity of the enzyme lot and was chosen appropriate to have the assay in the linear range, typical concentrations were in the range of 130 ng/ml. The reaction was stopped by the addition of 5 μl of a solution of TR-FRET detection reagents (0.2 μM streptavidine-XL665 [Cisbio Bioassays, Codolet, France] and 1 nM anti-RB(pSer807/pSer811)-antibody from BD Pharmingen [#558389] and 1.2 nM LANCE EU-W1024 labeled anti-mouse IgG antibody [Perkin-Elmer, product no. AD0077]) in an aqueous EDTA-solution (100 mM EDTA, 0.2% (w/v) bovine serum albumin in 100 mM HEPES/NaOH pH 7.0).
as §1, with “TR-FRET” for “HTRF”

Question: With `CC(C)S(=O)(=O)Cc1cccc(Nc2ncc(F)c(-c3ccc(F)cc3F)n2)c1` [Example 2, 4-(2,4-Difluorophenyl)-5-fluoro-N-{3-[(propan-2-ylsulfonyl)methyl]phenyl}pyrimidin-2-amine] as the compound, how does the IC50 (CDK9/CycT1) read?
Answer: 50 nM

Question: And the “Selectivity CDK9/CDK2” value (CDK9/CycT1)?
Answer: 24

Question: And the IC50 (CDK2/CycE)?
Answer: 1200 nM

Question: For `CC(C)(C)S(=O)(=O)Cc1cccc(Nc2ncc(F)c(-c3ccc(F)cc3F)n2)c1` [Example 3, N-{3-[(tert-Butylsulfonyl)methyl]phenyl}-4-(2,4-difluorophenyl)-5-fluoropyrimidin-2-amine], which IC50 (CDK9/CycT1) is on record?
Answer: 110 nM

Question: What about the “Selectivity CDK9/CDK2” value (CDK9/CycT1) of the same compound?
Answer: 10

Question: And the IC50 (CDK2/CycE)?
Answer: 1000 nM

Question: What does the source list for `COCCS(=O)(=O)Cc1cccc(Nc2ncc(F)c(-c3ccc(F)cc3F)n2)c1` [Example 4, 4-(2,4-Difluorophenyl)-5-fluoro-N-(3-{[(2-methoxyethyl)sulfonyl]methyl}phenyl)pyrimidin-2-amine]?
Answer: IC50 (CDK9/CycT1): 130 nM; Selectivity CDK9/CDK2 (CDK9/CycT1): 20; IC50 (CDK2/CycE): 2600 nM

Question: `CS(=O)(=O)Cc1cccc(Nc2ncc(F)c(-c3ccc(F)cc3F)n2)c1` [Example 5, 4-(2,4-Difluorophenyl)-5-fluoro-N-{3-[(methylsulfonyl)methyl]phenyl}pyrimidin-2-amine] was tested. Which IC50 (CDK9/CycT1) did it give?
Answer: 51 nM

Question: What about the “Selectivity CDK9/CDK2” value (CDK9/CycT1) of the same compound?
Answer: 9.1

Question: What about the IC50 (CDK2/CycE) of the same compound?
Answer: 470 nM

Question: Which IC50 (CDK9/CycT1) does the source give for `CS(=O)(=O)Cc1cc(Nc2ncc(F)c(-c3ccc(F)cc3F)n2)cc(S(F)(F)(F)(F)F)c1` [Example 6, 4-(2,4-Difluorophenyl)-5-fluoro-N-{3-[(methylsulfonyl)methyl]-5-(pentafluoro-λ^6-sulfanyl)phenyl}pyrimidin-2-amine] here?
Answer: 14 nM

Question: What about the “Selectivity CDK9/CDK2” value (CDK9/CycT1) of the same compound?
Answer: 122

Question: What about the IC50 (CDK2/CycE) of the same compound?
Answer: 1760 nM

Question: For `CCCS(=O)(=O)Cc1cccc(Nc2ncc(F)c(-c3ccc(F)cc3F)n2)c1` [Example 8, 4-(2,4-difluorophenyl)-5-fluoro-N-{3-[(propylsulfonyl)methyl]phenyl}pyrimidin-2-amine], which IC50 (CDK9/CycT1) is on record?
Answer: 39 nM

Question: What about the “Selectivity CDK9/CDK2” value (CDK9/CycT1) of the same compound?
Answer: 15

Question: What about the IC50 (CDK2/CycE) of the same compound?
Answer: 570 nM

Question: How did the IC50 (CDK9/CycT1) turn out when `O=S(=O)(Cc1cccc(Nc2ncc(F)c(-c3ccc(F)cc3F)n2)c1)C1CC1` [Example 9, N-{3-[(Cyclopropylsulfonyl)methyl]phenyl}-4-(2,4-difluorophenyl)-5-fluoropyrimidin-2-amine] was run?
Answer: 13 nM

Question: And the “Selectivity CDK9/CDK2” value (CDK9/CycT1)?
Answer: 32

Question: What about the IC50 (CDK2/CycE) of the same compound?
Answer: 410 nM

Question: `CS(=O)(=O)Cc1cc(F)cc(Nc2ncc(F)c(-c3ccc(F)cc3F)n2)c1` [Example 10, 4-(2,4-Difluorophenyl)-5-fluoro-N-{3-fluoro-5-[(methylsulfonyl)methyl]phenyl}pyrimidin-2-amine] was tested. Which IC50 (CDK9/CycT1) did it give?
Answer: 130 nM

Question: And the “Selectivity CDK9/CDK2” value (CDK9/CycT1)?
Answer: 28

Question: And the IC50 (CDK2/CycE)?
Answer: 5800 nM

Question: For `CS(=O)(=O)Cc1cc(F)cc(Nc2ncc(F)c(-c3cc(F)c(F)cc3F)n2)c1` [Example 11, 5-Fluoro-N-{3-fluoro-5-[(methylsulfonyl)methyl]phenyl}-4-(2,4,5-trifluorophenyl)pyrimidin-2-amine], which IC50 (CDK9/CycT1) is on record?
Answer: 74 nM

Question: What about the “Selectivity CDK9/CDK2” value (CDK9/CycT1) of the same compound?
Answer: >270

Question: What about the IC50 (CDK2/CycE) of the same compound?
Answer: > 20000 nM

Question: What does the source list for `CS(=O)(=O)Cc1cc(F)cc(Nc2ncc(F)c(-c3ccc(F)c(F)c3F)n2)c1` [Example 12, 5-fluoro-N-{3-fluoro-5-[(methylsulfonyl)methyl]phenyl}-4-(2,3,4-trifluorophenyl)pyrimidin-2-amine]?
Answer: IC50 (CDK9/CycT1): 25 nM; Selectivity CDK9/CDK2 (CDK9/CycT1): 14; IC50 (CDK2/CycE): 350 nM

Question: Which IC50 (CDK9/CycT1) does the source give for `CCCS(=O)(=O)Cc1cc(F)cc(Nc2ncc(F)c(-c3ccc(F)cc3F)n2)c1` [Example 13, 4-(2,4-Difluorophenyl)-5-fluoro-N-{3-fluoro-5-[(propylsulfonyl)methyl]phenyl}pyrimidin-2-amine] here?
Answer: 13 nM

Question: What about the “Selectivity CDK9/CDK2” value (CDK9/CycT1) of the same compound?
Answer: 44

Question: What about the IC50 (CDK2/CycE) of the same compound?
Answer: 580 nM
